Where two headings read alike, the source gives them in different places.
Columns and labels:
[1] = test system: Barnyardgrass (Echinochloa crus-galli); experiment: Postemergence herbicidal activity, greenhouse spray; assay type: in vivo; settings: Echinochloa crus-galli, post-emergence, 336 h, visual score after 2 weeks, read-out: Post-emergent % control ECHCG; for pest or weed control at 500 ppm: rate 500 ppm; for pest or weed control at 125 ppm: rate 125 ppm; for pest or weed control at 250 ppm: rate 250 ppm
Summary of the method: (§1)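 Plants grown 7-21 days in a greenhouse (~15 hr photoperiod, about 23-29° C day/22-28° C night) and treated at the first or second true leaf stage. Compounds in acetone:DMSO 97:3 were diluted into an aqueous acetone/isopropyl alcohol/crop oil/Triton X-155 carrier and sprayed to thorough coverage. Controls received carrier alone.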

[2] = test system: Cocklebur (Xanthium strumarium); experiment: as above; assay type: in vivo; settings: Xanthium strumarium, post-emergence, 336 h, visual score after 2 weeks, read-out: Post-emergent % control XANST; for pest or weed control at 500 ppm: rate 500 ppm, 0 no injury, 100 complete kill; for pest or weed control at 125 ppm: rate 125 ppm; for pest or weed control at 250 ppm: rate 250 ppm
Summary of the method: as §1

[3] = test system: Lambsquarter (Chenopodium album); experiment: as above; assay type: in vivo; settings: Chenopodium album, post-emergence, 336 h, visual score after 2 weeks, read-out: Post-emergent % control CHEAL; for pest or weed control at 500 ppm: rate 500 ppm; for pest or weed control at 125 ppm: rate 125 ppm; for pest or weed control at 250 ppm: rate 250 ppm
Summary of the method: as §1

[4] = test system: Yellow nutsedge (Cyperus esculentus); experiment: as above; assay type: in vivo; settings: Cyperus, post-emergence, 336 h, visual score after 2 weeks, read-out: Post-emergent % control CYPES; for pest or weed control at 500 ppm: rate 500 ppm; for pest or weed control at 125 ppm: rate 125 ppm; for pest or weed control at 250 ppm: rate 250 ppm
Summary of the method: as §1

[5] = test system: Crabgrass(large) (Digitaria sanguinalis); experiment: Preemergence herbicidal activity, soil spray; assay type: in vivo; settings: Digitaria sanguinalis, pre-emergence, 504 h, Table 5, visual score after 3 weeks, read-out: Pre-emergent % control DIGSA; for pest or weed control at 140 ppm: rate 140 ppm; for pest or weed control at 560 ppm: rate 560 ppm
Summary of the method: (§2)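 Soil spray, preemergence: loam/sand 70:30 (pH ~8.1, OM ~1.5%) → seeded pots treated on surface; compound in acetone/DMSO 97:3, serially diluted into water/Tween 155 (99.9:0.1). Controls got aqueous carrier only. Greenhouse: ~15 h light, 23-29° C day / 22-28° C night.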

[6] = test system: Giant Foxtail (Setaria faberi); experiment: Preemergence herbicidal activity, soil spray; assay type: in vivo; settings: Setaria faberi, pre-emergence, 504 h, Table 5, visual score after 3 weeks, read-out: Pre-emergent % control SETFA; for pest or weed control at 140 ppm: rate 140 ppm; for pest or weed control at 560 ppm: rate 560 ppm
Summary of the method: as §2

[7] = test system: Lambsquarter (Chenopodium album); experiment: Preemergence herbicidal activity, soil spray; assay type: in vivo; settings: Chenopodium album, pre-emergence, 504 h, Table 5, visual score after 3 weeks, read-out: Pre-emergent % control CHEAL; for pest or weed control at 140 ppm: rate 140 ppm; for pest or weed control at 560 ppm: rate 560 ppm, 100 complete kill or no germination
Summary of the method: as §2

[8] = test system: Pigweed (redroot) (Amaranthus retroflexus); experiment: Preemergence herbicidal activity, soil spray; assay type: in vivo; settings: Amaranthus retroflexus, pre-emergence, 504 h, Table 5, visual score after 3 weeks, read-out: Pre-emergent % control AMARE; for pest or weed control at 140 ppm: rate 140 ppm; for pest or weed control at 560 ppm: rate 560 ppm
Summary of the method: as §2

Row | melting point | Compound | pest or weed control at 500 ppm ([1]; Table 1) | pest or weed control at 125 ppm ([1]; Table 2) | pest or weed control at 500 ppm ([2]; Table 1) | pest or weed control at 125 ppm ([2]; Table 2) | pest or weed control at 500 ppm ([3]; Table 1) | pest or weed control at 125 ppm ([3]; Table 2) | pest or weed control at 500 ppm ([4]; Table 1) | pest or weed control at 125 ppm ([4]; Table 2) | pest or weed control at 140 ppm [5] | pest or weed control at 140 ppm [6] | pest or weed control at 140 ppm [7] | pest or weed control at 140 ppm [8] | further results
1 | 156 to 157 °C | Nc1cc(-c2ccc(Cl)c(F)c2)nc(C(=O)O)c1Cl [Compound 181, 4-Amino-3-chloro-6-(4-chloro-3-fluorophenyl)pyridine-2-carboxylic acid] | 100% | 70% | 100% | 100% | 100% | 100% | 100% | 85% | 100% | 100% | 100% | 100% | –
2 | 154 to 155 °C | Nc1c(F)c(-c2ccc(Cl)cc2F)nc(C(=O)O)c1Cl [Compound 189, 4-Amino-3-chloro-5-fluoro-6-(4-chloro-2-fluorophenyl)pyridine-2-carboxylic acid] | – | 90% | – | 90% | – | 90% | – | 90% | 100% | 100% | 100% | 100% | –
3 | 169 °C | Nc1c(F)c(-c2ccc3c(c2)OCO3)nc(C(=O)O)c1Cl [Compound 196, 4-Amino-3-chloro-5-fluoro-6-(3,4-methylenedioxyphenyl)pyridine-2-carboxylic acid] | – | 100% | – | 100% | – | 100% | – | 100% | – | – | – | – | pest or weed control at 250 ppm ([1]; Table 1): 100%; pest or weed control at 250 ppm ([2]; Table 1): 100%; pest or weed control at 250 ppm ([3]; Table 1): 100%; pest or weed control at 250 ppm ([4]; Table 1): 98%; pest or weed control at 560 ppm [5]: 100%; pest or weed control at 560 ppm [6]: 100%; pest or weed control at 560 ppm [7]: 100%; pest or weed control at 560 ppm [8]: 100%
4 | 171 °C | Nc1c(F)c(-c2ccc3c(c2)CCO3)nc(C(=O)O)c1Cl [Compound 197, 4-Amino-3-chloro-5-fluoro-6-(2,3-dihydro-5-benzofuranyl)pyridine-2-carboxylic acid] | – | 85% | – | 100% | – | 100% | – | 85% | – | – | – | – | pest or weed control at 250 ppm ([1]; Table 1): 90%; pest or weed control at 250 ppm ([2]; Table 1): 100%; pest or weed control at 250 ppm ([3]; Table 1): 100%; pest or weed control at 250 ppm ([4]; Table 1): 95%; pest or weed control at 560 ppm [5]: 100%; pest or weed control at 560 ppm [6]: 100%; pest or weed control at 560 ppm [7]: 100%; pest or weed control at 560 ppm [8]: 100%

Second part, the molecule before the results:

Row | Compound | melting point | pest or weed control at 500 ppm ([1]; Table 1) | pest or weed control at 125 ppm ([1]; Table 2) | pest or weed control at 500 ppm ([2]; Table 1) | pest or weed control at 125 ppm ([2]; Table 2) | pest or weed control at 500 ppm ([3]; Table 1) | pest or weed control at 125 ppm ([3]; Table 2) | pest or weed control at 500 ppm ([4]; Table 1) | pest or weed control at 125 ppm ([4]; Table 2) | pest or weed control at 140 ppm [5] | pest or weed control at 140 ppm [6] | pest or weed control at 140 ppm [7] | pest or weed control at 140 ppm [8] | further results
5 | Nc1cc(-c2ccc(F)c(Cl)c2)nc(C(=O)O)c1Cl [Compound 151, 4-Amino-3-chloro-6-(3-chloro-4-fluorophenyl)pyridine-2-carboxylic acid] | 183 to 184 °C | 100% | 85% | 100% | 100% | 100% | 100% | 85% | 90% | 100% | 100% | 100% | 100% | –
6 | Nc1cc(-c2ccc(C(F)(F)F)cc2)nc(C(=O)O)c1Cl [Compound 152, 4-Amino-3-chloro-6-[4-(trifluoromethyl)phenyl]pyridine-2-carboxylic acid] | 175 to 176 °C | – | – | – | – | – | – | – | – | 100% | 100% | 100% | 95% | pest or weed control at 125 ppm ([1]; Table 1): 90%; pest or weed control at 125 ppm ([2]; Table 1): 100%; pest or weed control at 125 ppm ([3]; Table 1): 100%; pest or weed control at 125 ppm ([4]; Table 1): 95%
7 | Nc1cc(-c2ccc(Cl)cc2)nc(C(=O)O)c1Cl [Compound 154, 4-Amino-3-chloro-6-(4-chlorophenyl)pyridine-2-carboxylic acid] | 165 °C | 100% | 70% | 100% | 100% | 100% | 100% | 100% | 90% | 100% | 100% | 100% | 100% | –
8 | Cc1ccc(-c2cc(N)c(Cl)c(C(=O)O)n2)c(F)c1 [Compound 158, 4-Amino-3-chloro-6-(2-fluoro-4-methylphenyl)pyridine-2-carboxylic acid] | 187 to 189 °C | 95% | – | 100% | – | 100% | – | 70% | – | 98% | 100% | 100% | 100% | –
9 | Cc1ccc(-c2nc(C(=O)O)c(Cl)c(N)c2F)cc1 [Compound 163, 4-Amino-3-chloro-5-fluoro-6-(4-methylphenyl)pyridine-2-carboxylic acid] | 145 to 148 °C (dec.) | – | 70% | – | 100% | – | 90% | – | 70% | 100% | 95% | 100% | 98% | pest or weed control at 250 ppm ([1]; Table 1): 70%; pest or weed control at 250 ppm ([2]; Table 1): 100%; pest or weed control at 250 ppm ([3]; Table 1): 95%; pest or weed control at 250 ppm ([4]; Table 1): 70%
10 | Nc1cc(-c2ccc(Cl)cc2F)nc(C(=O)O)c1Cl [Compound 168, 4-Amino-3-chloro-6-(4-chloro-2-fluorophenyl)pyridine-2-carboxylic acid] | 162 to 163 °C | 85% | – | 100% | – | 100% | – | 90% | – | 100% | 100% | 100% | 100% | –
11 | CCc1ccc(-c2cc(N)c(Cl)c(C(=O)O)n2)cc1 [Compound 175, 4-Amino-3-chloro-6-(4-ethylphenyl)pyridine-2-carboxylic acid] | 152 °C | 80% | – | 100% | – | 99% | – | 0% | – | 100% | 95% | 100% | 95% | –
